Two compounds from patent publication US10647718B2, “Compounds and use thereof in the expansion of hematopoietic stem cells and/or hematopoietic progenitor cells” (UNIVERSITÉ DE MONTRÉAL, priority 2014, dated 2020) can be followed below.

Where two headings read alike, the source gives them in different places.

This experiment deals with CD34+CD45RA− cell. Nature of the experiment: Hematopoietic stem cell expansion assay (CD34+CD45RA− cell count versus DMSO vehicle cultures). The format is cell-based. To be noted: Homo sapiens, concentration that results in a 50% increase in CD34+CD45RA− cell count compared to vehicle cultures (DMSO), read-out: Biological data EC50. As to the method:
As used herein, the term “EC50” is intended to mean the concentration that results in a 50% increase in CD34+CD45RA− cell count compared to vehicle cultures (DMSO).
Screening Assay: screening assays were conducted as described in the inventors' previous patent application, WO 2013/110198.
The following biological assays were used to assess the effect of the compounds of the invention on hematopoietic stem cell expansion The results are illustrated in FIGS. 1 to 6. Culture medium: The culture medium used consisted of serum-free medium supplemented with the following recombinant cytokines: interleukin-6, thrombopoietin, Flt-3 ligand, and stem cell factor, each at a final concentration of 100 ng/ml, in the presence of vehicle (DMSO), positive control (SR1), or compound of the invention or a combination of compounds. Cell Culture: CD34+ cell purity of initial harvests was higher than 90%, as determined by flow cytometry. The CD34+ CD45RA− subpopulation reached purity levels higher than 70%. Cells were plated at 40,000 cells/ml and incubated for 7 to 12-days at 37° C. in 5% CO2. For long term cultures, 200,000 CD34+cells/ml from mobilized PB were plated with serum free media supplemented with interleukin-6, thrombopoietin, Flt3 ligand, and stem cell factor, each at a final concentration of 100 ng/ml, in the presence of vehicle (DMSO), positive control, or a compound of the invention at 500 nM.

For `COC(=O)c1cnc2c(c1)[nH]c1nc(Cc3ccccc3)nc(NCC(C)CN(C)C)c12` (centres unmarked) [Compound 14, methyl 2-benzyl-4-((3-(dimethylamino)-2-methylpropyl)amino)-9H-pyrido[2′,3′:4,5]pyrrolo[2,3-d]pyrimidine-7-carboxylate], under “Table 1, pyridopyrrolopyrimidine series”, the EC50 lay within 500 to 1000 nM.

For `COC(=O)c1ccc2c(c1)[nH]c1cc(Cc3ccsc3)nc(NCCCN3CCCCC3)c12` [10′, methyl 1-((3-(piperidin-1-yl)propyl)amino)-3-(thiophen-3-ylmethyl)-5H-pyrido[4,3-b]indole-7-carboxylate], the EC50 (Table 1′, pyrido[4,3-b]indole series) fell in the range of 100 to 250 nM.
